The values below are quoted from earlier work in patent publication US20240156825A1, “USE OF SELECTIVE VEGFR2 AND FGFR1 INHIBITORS” (Fountain Therapeutics Inc., priority 2022, published 2024).

Read-outs that look alike come from different tables or passages of the source.

One series concerns any gene target. Particulars: next lowest IC50 value to any gene target, read-out: Min IC50_μM, cited from earlier work.
For a further series, the target named is VEGFR2 (Homo sapiens, UniProt P35968). The note with it: reported IC50 to VEGFR2, read-out: VEGFR2 IC50_μM, cited from earlier work.
[1] abbreviates: Table 3, selective inhibitors of VEGFR2.

Sequence of VEGFR2 (P35968 20-1356, species assumed): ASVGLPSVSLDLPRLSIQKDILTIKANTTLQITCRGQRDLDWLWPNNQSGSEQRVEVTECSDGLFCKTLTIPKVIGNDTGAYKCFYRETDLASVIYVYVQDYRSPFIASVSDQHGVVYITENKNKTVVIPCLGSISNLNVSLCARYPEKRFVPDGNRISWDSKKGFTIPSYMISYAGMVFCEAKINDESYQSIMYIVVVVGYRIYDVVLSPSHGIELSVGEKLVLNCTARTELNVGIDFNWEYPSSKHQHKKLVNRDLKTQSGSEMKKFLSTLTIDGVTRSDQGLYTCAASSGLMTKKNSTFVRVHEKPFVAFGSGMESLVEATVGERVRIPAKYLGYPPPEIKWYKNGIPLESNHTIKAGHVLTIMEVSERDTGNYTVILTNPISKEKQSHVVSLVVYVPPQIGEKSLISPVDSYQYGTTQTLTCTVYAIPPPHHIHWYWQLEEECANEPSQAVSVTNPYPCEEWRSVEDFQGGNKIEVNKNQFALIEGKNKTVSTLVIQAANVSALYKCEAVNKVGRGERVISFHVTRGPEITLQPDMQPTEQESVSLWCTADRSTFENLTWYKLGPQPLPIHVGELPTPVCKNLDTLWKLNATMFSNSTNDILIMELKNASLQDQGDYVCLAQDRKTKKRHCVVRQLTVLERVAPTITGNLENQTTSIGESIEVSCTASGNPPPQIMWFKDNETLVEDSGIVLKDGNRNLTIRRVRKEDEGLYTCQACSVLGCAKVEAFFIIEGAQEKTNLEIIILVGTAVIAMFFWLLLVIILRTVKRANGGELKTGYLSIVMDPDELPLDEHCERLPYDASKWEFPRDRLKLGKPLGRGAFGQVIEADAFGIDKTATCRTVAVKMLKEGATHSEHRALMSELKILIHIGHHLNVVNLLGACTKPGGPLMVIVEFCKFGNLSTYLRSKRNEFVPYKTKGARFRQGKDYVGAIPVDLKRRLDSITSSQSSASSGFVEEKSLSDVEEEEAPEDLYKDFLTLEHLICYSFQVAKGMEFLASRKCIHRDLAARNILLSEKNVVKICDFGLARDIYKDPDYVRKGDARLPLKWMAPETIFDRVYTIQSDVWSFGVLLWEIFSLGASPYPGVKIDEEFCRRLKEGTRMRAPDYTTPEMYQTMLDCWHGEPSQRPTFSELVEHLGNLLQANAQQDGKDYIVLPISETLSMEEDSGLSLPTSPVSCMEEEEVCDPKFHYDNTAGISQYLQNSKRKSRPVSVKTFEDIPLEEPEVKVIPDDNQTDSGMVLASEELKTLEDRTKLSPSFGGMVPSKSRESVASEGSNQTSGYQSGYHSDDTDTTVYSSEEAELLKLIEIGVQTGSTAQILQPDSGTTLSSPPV

In the case of `COc1cc2c(Nc3ccc(Cl)cc3F)ncnc2cc1OCCN1CCOCC1` [compound 5329019], the IC50 in the series with any gene target is 300 nM; at VEGFR2, 40 nM.
`COc1cc2c(Nc3ccc(Cl)cc3F)ncnc2cc1OCCCN1CCOCC1` [compound 5329020]: the IC50 in the series on any gene target was 50 nM; at VEGFR2 it was 9 nM.
As for `COc1cc2c(Nc3ccc(Cl)cc3F)ncnc2cc1OCCN(C)c1ccncc1` [compound 5329026], the IC50 was 100 nM with any gene target and 6 nM on VEGFR2.
Consider `COc1cc2c(Nc3ccc(C#N)cc3F)ncnc2cc1OC/C=C/CN1CCCC1` [compound 5329040], for which the results for the IC50 in the series on any gene target and on VEGFR2 were 500 nM and 230 nM, respectively.
As for `COc1cc2c(Nc3ccc(C)cc3F)ncnc2cc1OCC1CCN(C)CC1` [compound 5329042], the IC50 in the series on any gene target was 65 nM; at VEGFR2, 25 nM.
Consider `COc1cc2c(Nc3c(F)cc(Cl)cc3F)ncnc2cc1OCC1CCN(C)CC1` [compound 5329045], for which the values for the IC50 in the series with any gene target and at VEGFR2 were 60 nM and 25 nM, respectively.
Take `COc1cc2c(Nc3c(F)cc(Br)cc3F)ncnc2cc1OCC1CCN(C)CC1` [compound 5329046]: the IC50 is 100 nM in the series with any gene target and 10 nM at VEGFR2.
As to `COc1cc2c(Nc3ccc(C)cc3F)ncnc2cc1OCC1CCNCC1` [compound 5329049], the IC50 in the series with any gene target is 250 nM; at VEGFR2 it was 30 nM.
Regarding `COc1cc2c(Nc3c(F)cc(Cl)cc3F)ncnc2cc1OCC1CCNCC1` [compound 5329050], the IC50 in the series with any gene target was 100 nM; at VEGFR2 it was 40 nM.
Turning to `COc1cc2c(Nc3c(F)cc(Br)cc3F)ncnc2cc1OCC1CCNCC1` [compound 5329051], the IC50 is 70 nM in the series with any gene target and 15 nM on VEGFR2.
On to `COc1cc2c(Nc3ccc(Cl)cc3F)ncnc2cc1OCCC1CCN(C)CC1` [compound 5329052], for which the IC50 in the series on any gene target was 70 nM; on VEGFR2, 55 nM.
In the case of `COc1cc2c(Nc3ccc(Br)cc3F)ncnc2cc1OCCC1CCN(C)CC1` [compound 5329053], the IC50 in the series with any gene target was 60 nM; on VEGFR2 it was 6 nM.
Consider `COc1cc2c(Nc3ccc(Br)cc3F)ncnc2cc1OCCC1CCNCC1` [compound 5329054], for which the IC50 in the series with any gene target (Table 3) and at VEGFR2 (setting [1]) was 40 nM each time.
Take `COc1cc2c(Nc3ccc(Cl)cc3F)ncnc2cc1OC[C@@H]1CCCN(C)C1` [compound 5329055]: the IC50 was 80 nM in the series with any gene target and 5 nM at VEGFR2.
For `COc1cc2c(Nc3ccc(Br)cc3F)ncnc2cc1OC[C@@H]1CCCN(C)C1` [compound 5329056], the IC50 was 60 nM in the series with any gene target and 1 nM at VEGFR2.
Turning to `COc1cc2c(Nc3ccc(Br)cc3F)ncnc2cc1OC[C@H]1CCCN(C)C1` [compound 5329057], the IC50 in the series on any gene target is 40 nM; at VEGFR2 it was 10 nM.
For the compound `COc1cccc(-c2ccc3c(c2)NC(=O)/C3=C\c2[nH]c3c(c2CCC(=O)O)CCCC3)c1` [compound 5329169], the IC50 in the series on any gene target is 100 nM; on VEGFR2, 70 nM.
Take `c1ccc(-c2cnn3cc(-c4ccc(OCCN5CCOCC5)cc4)cnc23)cc1` [compound 5329447]: the results for the IC50 with any gene target and at VEGFR2 were 32 nM and 9 nM, respectively.
As to `OCCCNc1cncc(-c2cncc(Nc3cccc(Cl)c3)n2)c1` [compound 5330387], the IC50 in the series with any gene target (Table 3) and at VEGFR2 (setting [1]) was 5 nM in each case.
Regarding `OCCCCNc1cncc(-c2cncc(Nc3cccc(Cl)c3)n2)c1` [compound 5330388], the IC50 in the series on any gene target was 2360 nM; at VEGFR2, 63 nM.
Regarding `Clc1cccc(Nc2cncc(-c3cncc(NCCCn4cccn4)c3)n2)c1` [compound 5330391], the IC50 in the series with any gene target is 326 nM; on VEGFR2 it was 93.3 nM.
For the compound `Clc1cccc(Nc2cncc(-c3cncc(NCCCn4cncn4)c3)n2)c1` [compound 5330392], the IC50 in the series on any gene target was 153 nM; at VEGFR2 it was 67 nM.
For `COc1ccccc1/C(C)=C/c1coc2nc(N)nc(N)c12` [compound 6477203], the IC50 in the series with any gene target is 12800 nM; on VEGFR2 it was 10300 nM.
For `COc1cc2c(Oc3ccc(Nc4ccc(C(C)(C)C)cc4)cc3)ccnc2cc1OCCNCCO` [compound 9850161], the IC50 in the series on any gene target (Table 3) and on VEGFR2 (setting [1]) was 69 nM each time.
For the compound `COc1cc2c(Nc3ccc(Br)c(Cl)c3F)ncnc2cc1OC[C@@H]1CN2CCOC[C@H]2CO1` [compound 9937516], the IC50 in the series on any gene target (Table 3) and on VEGFR2 (setting [1]) was 50 nM throughout.
As for `COc1cc2c(Nc3ccc(F)c(Cl)c3F)ncnc2cc1OC[C@H]1CN2CCOC[C@H]2CO1` [compound 10028639], the IC50 with any gene target (Table 3) and at VEGFR2 (setting [1]) was 50 nM in each case.
For the compound `COc1cc2c(Nc3ccc(Cl)c(Cl)c3F)ncnc2cc1OC[C@H]1CN2CCOC[C@H]2CO1` [compound 10029284], the IC50 in the series with any gene target (Table 3) and at VEGFR2 (setting [1]) was 50 nM each time.
For the compound `COc1cc2c(Nc3cc(Cl)c(Br)cc3F)ncnc2cc1OC[C@H]1CN2CCOC[C@H]2CO1` [compound 10030541], the IC50 in the series with any gene target (Table 3) and at VEGFR2 (setting [1]) was 50 nM throughout.
On to `CC(C)(Nc1nc(NO)nc(Nc2ccc3ncsc3c2)n1)c1ccccc1` [compound 10249989], for which the IC50 was 420 nM with any gene target and 40 nM at VEGFR2.
With `COc1cc2c(Nc3ccc(Cl)c(Cl)c3)ncnc2cc1OC1C[C@@H]2CN(C)C[C@@H]2C1` (stereo partly drawn) [compound 10253661], the IC50 with any gene target (Table 3) and at VEGFR2 (setting [1]) was 50 nM throughout.
Regarding `Cc1nc2cc(N(C)c3ccnc(Nc4cccc(S(N)(=O)=O)c4)n3)ccc2n1C` [compound 10273854], the IC50 with any gene target was 9000 nM; on VEGFR2 it was 17 nM.
For the compound `COc1cc2c(Nc3cc(Cl)c(Cl)cc3F)ncnc2cc1OC[C@H]1CN2CCOC[C@H]2CO1` [compound 10346203], the IC50 in the series with any gene target (Table 3) and on VEGFR2 (setting [1]) was 50 nM in each case.
As for `COc1cc2c(Nc3ccc(Br)c(Cl)c3F)ncnc2cc1OC[C@H]1CN2CCOC[C@H]2CO1` [compound 10370400], the IC50 with any gene target (Table 3) and on VEGFR2 (setting [1]) was 50 nM throughout.
Turning to `O=C1N/C=C/c2ccc(c(Br)c2)Oc2cc(cc(Br)c2O)CCNC(=O)/C(=N/O)Cc2ccc(c(Br)c2)Oc2cc(cc(Br)c2O)C/C1=N\O` [compound 10396070], the IC50 is 1500 nM in the series with any gene target and 1300 nM on VEGFR2.
In the case of `COc1cc2c(Nc3ccc(Cl)c(Cl)c3)ncnc2cc1OCc1cscn1` [compound 10455540], the IC50 with any gene target (Table 3) and at VEGFR2 (setting [1]) was 50 nM each time.
As for `COCCNC(=O)c1cccc2cc(Oc3ccnc4cc(OC)c(C(N)=O)cc34)ccc12` [compound 11224593], the IC50 is 233 nM in the series with any gene target and 22 nM at VEGFR2.
As to `COCCNC(=O)c1cccc2cc(Oc3ccnc4cc(OC)c(OC)cc34)ccc12` [compound 11362483], the IC50 is 73 nM in the series on any gene target and 12 nM on VEGFR2.
With `COc1cc2nccc(Oc3ccc4c(NC(=O)c5cccc(C(F)(F)F)c5)nn(C)c4c3)c2cc1OC` [compound 11398307], the IC50 was 45 nM in the series on any gene target and 1 nM on VEGFR2.
In the case of `COc1cc2nccc(Oc3ccc4c(C(N)=O)cccc4c3)c2cc1OC` [compound 11474276], the IC50 in the series with any gene target was 88 nM; on VEGFR2, 0.891 nM.
For `COc1cc(C2=C(c3c[nH]c4ccccc34)C(=O)NC2=O)cc(OC)c1OC` [compound 11530963], the IC50 with any gene target is 5 nM; on VEGFR2, 2.5 nM.
With `O=C(NC1CC1)c1cc(NCc2cnc(Nc3ccccn3)s2)c(F)cc1F` [compound 11632737], the IC50 is 200 nM with any gene target and 23 nM on VEGFR2.
For the compound `COc1cc2nccc(Oc3ccc4c(C(=O)NC5CC5)cccc4c3)c2cc1C(N)=O` [compound 11750694], the results for the IC50 in the series on any gene target and at VEGFR2 were 185 nM and 0.37 nM, respectively.
Regarding `O=C(Nc1cccc(-c2cn3ccnc3c(NCc3ccncc3)n2)c1)Nc1cccc(C(F)(F)F)c1` [compound 11755812], the figures for the IC50 in the series on any gene target and at VEGFR2 were 35 nM and 33 nM, respectively.
Take `Cn1ccc2ncnc(Oc3ccc(NC(=O)Nc4cccc(C(F)(F)F)c4)c(F)c3)c21` [compound 15949613]: the values for the IC50 in the series on any gene target and on VEGFR2 were 15 nM and 0.033 nM, respectively.
In the case of `Cc1ccc(NC(=O)c2ccc(C(C)(C)C)s2)cc1Nc1nc2ccccc2n1-c1cc(N)ncn1` [compound 15949617], the IC50 with any gene target and at VEGFR2 was 4 nM throughout.
With `Cc1ccc(NC(=O)c2cc(C3CC3)[nH]n2)cc1Nc1nc2ccccc2n1-c1cc(N)ncn1` [compound 15949619], the values for the IC50 in the series on any gene target and at VEGFR2 were 50 nM and 48 nM, respectively.
On to `COc1ccc(Nc2ncc3c(n2)-c2ccccc2NC(=O)C3)cc1O` [compound 16730105], for which the figures for the IC50 in the series with any gene target and on VEGFR2 were 640 nM and 73 nM, respectively.
In the case of `COc1cc2c(Nc3ccc(Cl)cc3F)ncnc2cc1OCCCN1CCN(C)CC1` [compound 21701597], the IC50 in the series with any gene target is 50 nM; at VEGFR2 it was 20 nM.
Regarding `Cc1[nH]nc2cc(N(C)c3ccnc(Nc4cccc(S(N)(=O)=O)c4)n3)ccc12` [compound 21956341], the IC50 with any gene target was 700 nM; on VEGFR2, 0.6 nM.
Consider `COc1cc2c(Nc3ccc(Br)cc3F)ncnc2cc1OC/C=C/CN1CCCC1` [compound 22478260], for which the values for the IC50 with any gene target and on VEGFR2 were 30 nM and 8 nM, respectively.
For the compound `COc1cc2c(Nc3ccc(Cl)cc3F)ncnc2cc1OC/C=C/CN1CCCC1` [compound 22478297], the IC50 in the series with any gene target (Table 3) and on VEGFR2 (setting [1]) was 40 nM throughout.
With `COc1cc2c(Nc3ccc(Cl)cc3F)ncnc2cc1OCC1CCN(C)CC1` [compound 23133320], the results for the IC50 in the series with any gene target and at VEGFR2 were 50 nM and 15 nM, respectively.
`COc1cc2nccc(Oc3ccc4c(C(=O)NC5CCCC5)cccc4c3)c2cc1OC` [compound 24822599]: the IC50 in the series on any gene target was 620 nM; at VEGFR2 it was 9 nM.
Turning to `COc1cc2nccc(Oc3ccc4c(C(=O)NC(C)C)cccc4c3)c2cc1OC` [compound 24822600], the IC50 in the series with any gene target is 190 nM; on VEGFR2, 5 nM.
